Reference: PubChem BioAssay (NCI)
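A five-concentration, 48-hour dose response in 96-well plates underlies each endpoint, interpolated linearly between surrounding concentrations. GI50 is the concentration that inhibits growth by half. Definition used: TGI = concentration required for complete inhibition of growth.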

Key:
Assay in all cases: NCI tumour cell line growth inhibition, 48 h
RXF 393 renal = test system: RXF 393 renal
HT29 colon = test system: HT29 colon
NCI-H23 lung = test system: NCI-H23 lung
TK-10 renal = test system: TK-10 renal
HL-60(TB) leukemia = test system: HL-60(TB) leukemia
U251 CNS = test system: U251 CNS
K-562 leukemia = test system: K-562 leukemia
NCI-H226 lung = test system: NCI-H226 lung
UACC-62 melanoma = test system: UACC-62 melanoma
MCF7 breast = test system: MCF7 breast
NCI-H522 lung = test system: NCI-H522 lung
IGROV1 ovarian = test system: IGROV1 ovarian
NCI/ADR-RES ovarian = test system: NCI/ADR-RES ovarian
SK-OV-3 ovarian = test system: SK-OV-3 ovarian
OVCAR-5 ovarian = test system: OVCAR-5 ovarian
T-47D breast = test system: T-47D breast
RPMI-8226 leukemia = test system: RPMI-8226 leukemia
MDA-MB-231 breast = test system: MDA-MB-231 breast
SNB-75 CNS = test system: SNB-75 CNS
786-0 renal = test system: 786-0 renal
HCT-15 colon = test system: HCT-15 colon
HOP-92 NSCLC = test system: HOP-92 NSCLC
LOX IMVI melanoma = test system: LOX IMVI melanoma
HOP-62 NSCLC = test system: HOP-62 NSCLC
PC-3 prostate = test system: PC-3 prostate
A549 NSCLC = test system: A549 NSCLC
OVCAR-8 ovarian = test system: OVCAR-8 ovarian
SW-620 colon = test system: SW-620 colon
SK-MEL-5 melanoma = test system: SK-MEL-5 melanoma
CCRF-CEM leukemia = test system: CCRF-CEM leukemia
KM12 colon = test system: KM12 colon
UO-31 renal = test system: UO-31 renal
HS 578T breast = test system: HS 578T breast
MDA-MB-435 = test system: MDA-MB-435
BT-549 breast = test system: BT-549 breast
ACHN renal = test system: ACHN renal
UACC-257 melanoma = test system: UACC-257 melanoma
SR leukemia = test system: SR leukemia
SF-268 CNS = test system: SF-268 CNS
SK-MEL-28 melanoma = test system: SK-MEL-28 melanoma
DU-145 prostate = test system: DU-145 prostate
A498 renal = test system: A498 renal
OVCAR-4 ovarian = test system: OVCAR-4 ovarian
CAKI-1 renal = test system: CAKI-1 renal
SF-539 CNS = test system: SF-539 CNS
COLO 205 colon = test system: COLO 205 colon
SNB-19 CNS = test system: SNB-19 CNS
SF-295 CNS = test system: SF-295 CNS
HCC-2998 colon = test system: HCC-2998 colon
M14 melanoma = test system: M14 melanoma
SK-MEL-2 melanoma = test system: SK-MEL-2 melanoma
MALME-3M melanoma = test system: MALME-3M melanoma
NCI-H460 lung = test system: NCI-H460 lung
EKVX NSCLC = test system: EKVX NSCLC
MOLT-4 leukemia = test system: MOLT-4 leukemia
SN12C renal = test system: SN12C renal
HCT-116 colon = test system: HCT-116 colon
OVCAR-3 ovarian = test system: OVCAR-3 ovarian

## CNC[C@@H](NC(=O)c1ccc(-c2nc([C@H]3CC[C@H](O)[C@@H](F)C3)cnc2N)cc1F)c1cc(F)cc(Br)c1
RXF 393 renal
  GI50: 6.28 µM
  TGI: 21.1 µM
HT29 colon
  GI50: 13.2 µM
  TGI: 27 µM
NCI-H23 lung
  GI50: 17.8 µM
  TGI: 35.3 µM
TK-10 renal
  GI50: 12.2 µM
  TGI: 28.9 µM
HL-60(TB) leukemia
  GI50: 13.6 µM
  TGI: 34.2 µM
U251 CNS
  GI50: 14.6 µM
  TGI: 32.4 µM
K-562 leukemia
  GI50: 13.6 µM
  TGI: 38.2 µM
NCI-H226 lung
  GI50: 16.5 µM
  TGI: 35.3 µM
UACC-62 melanoma
  GI50: 17.4 µM
  TGI: 32.8 µM
MCF7 breast
  GI50: 18.3 µM
  TGI: 34.5 µM
NCI-H522 lung
  GI50: 16.6 µM
  TGI: 32.4 µM
IGROV1 ovarian
  GI50: 16 µM
  TGI: 34 µM
NCI/ADR-RES ovarian
  GI50: 38.9 µM
  TGI: > 100 µM
SK-OV-3 ovarian
  GI50: 17 µM
  TGI: 31.3 µM
OVCAR-5 ovarian
  GI50: 16.4 µM
  TGI: 40.2 µM
T-47D breast
  GI50: 18.3 µM
  TGI: 36.2 µM
RPMI-8226 leukemia
  GI50: 11.2 µM
  TGI: 30.8 µM
MDA-MB-231 breast
  GI50: 12.7 µM
  TGI: 27.3 µM
SNB-75 CNS
  GI50: 4.09 µM
  TGI: 23.5 µM
786-0 renal
  GI50: 14 µM
  TGI: 29.5 µM
HCT-15 colon
  GI50: 16.5 µM
  TGI: 31.8 µM
HOP-92 NSCLC
  GI50: 2.57 µM
  TGI: 16.5 µM
LOX IMVI melanoma
  GI50: 15 µM
  TGI: 29.4 µM
HOP-62 NSCLC
  GI50: 14.3 µM
  TGI: 28.7 µM
PC-3 prostate
  GI50: 12.3 µM
  TGI: 25.5 µM
A549 NSCLC
  GI50: 14.3 µM
  TGI: 30.1 µM
OVCAR-8 ovarian
  GI50: 17.3 µM
  TGI: 35 µM
SW-620 colon
  GI50: 18.4 µM
  TGI: 34.5 µM
SK-MEL-5 melanoma
  GI50: 15.2 µM
  TGI: 29.3 µM
CCRF-CEM leukemia
  GI50: 16 µM
  TGI: 39.1 µM
KM12 colon
  GI50: 16 µM
  TGI: 31.3 µM
UO-31 renal
  GI50: 12.3 µM
  TGI: 26.4 µM
HS 578T breast
  GI50: 12.6 µM
  TGI: 39.4 µM
MDA-MB-435
  GI50: 16.1 µM
  TGI: 30.9 µM
BT-549 breast
  GI50: 11.2 µM
  TGI: 25.3 µM
ACHN renal
  GI50: 15 µM
  TGI: 29.1 µM
UACC-257 melanoma
  GI50: 15 µM
  TGI: 30.5 µM
SR leukemia
  GI50: 13.1 µM
  TGI: 35.3 µM
SF-268 CNS
  GI50: 12.6 µM
  TGI: 30.2 µM
SK-MEL-28 melanoma
  GI50: 17 µM
  TGI: 32.4 µM
DU-145 prostate
  GI50: 17.2 µM
  TGI: 32.8 µM
A498 renal
  GI50: 13.1 µM
  TGI: 26.7 µM
OVCAR-4 ovarian
  GI50: 18.1 µM
  TGI: 50.2 µM
CAKI-1 renal
  GI50: 11.6 µM
  TGI: 28.3 µM
SF-539 CNS
  GI50: 15.2 µM
  TGI: 29.1 µM
COLO 205 colon
  GI50: 13 µM
  TGI: 27 µM
SNB-19 CNS
  GI50: 17.7 µM
  TGI: 36 µM
SF-295 CNS
  GI50: 17.1 µM
  TGI: 32.5 µM
HCC-2998 colon
  GI50: 17.3 µM
  TGI: 31.8 µM
M14 melanoma
  GI50: 15.2 µM
  TGI: 31.1 µM
SK-MEL-2 melanoma
  GI50: 14 µM
  TGI: 28.7 µM
MALME-3M melanoma
  GI50: 13.9 µM
  TGI: 28.9 µM
NCI-H460 lung
  GI50: 17.7 µM
  TGI: 33.5 µM
EKVX NSCLC
  GI50: 16.1 µM
  TGI: 33.2 µM
MOLT-4 leukemia
  GI50: 15 µM
  TGI: 49.2 µM
SN12C renal
  GI50: 16.5 µM
  TGI: 32.9 µM

## Cc1cnc(NC2CCOCC2)nc1-n1cnc(C(=O)N[C@H](CN)c2cc(F)cc(Cl)c2)c1
RXF 393 renal
  GI50: 0.101 µM
  TGI: 2.42 µM
HT29 colon
  GI50: 0.0128 µM
  TGI: > 35.4 µM
NCI-H23 lung
  GI50: 0.0201 µM
  TGI: 16.5 µM
TK-10 renal
  GI50: 0.113 µM
  TGI: 23 µM
HL-60(TB) leukemia
  GI50: 0.0196 µM
  TGI: 1.83 µM
U251 CNS
  GI50: 1.54 µM
  TGI: 22.9 µM
K-562 leukemia
  GI50: 0.783 µM
  TGI: 14.5 µM
NCI-H226 lung
  GI50: 1.36 µM
  TGI: 10.9 µM
UACC-62 melanoma
  GI50: 0.0102 µM
  TGI: 5.57 µM
MCF7 breast
  GI50: 1.58 µM
  TGI: 15.4 µM
NCI-H522 lung
  GI50: 8.23 µM
  TGI: 30.5 µM
IGROV1 ovarian
  GI50: 0.0702 µM
  TGI: 13 µM
NCI/ADR-RES ovarian
  GI50: 19.8 µM
  TGI: > 91.9 µM
SK-OV-3 ovarian
  GI50: 0.523 µM
  TGI: 8.17 µM
OVCAR-5 ovarian
  GI50: 0.0269 µM
  TGI: > 82.8 µM
T-47D breast
  GI50: 13.6 µM
  TGI: 46.6 µM
RPMI-8226 leukemia
  GI50: 7.45 µM
  TGI: 30.4 µM
MDA-MB-231 breast
  GI50: 0.0999 µM
  TGI: > 30.6 µM
SNB-75 CNS
  GI50: 0.103 µM
  TGI: 8.84 µM
786-0 renal
  GI50: 1.49 µM
  TGI: 20 µM
HCT-15 colon
  GI50: 3.06 µM
  TGI: 34.3 µM
HOP-92 NSCLC
  GI50: 0.023 µM
  TGI: 2.12 µM
LOX IMVI melanoma
  GI50: 0.0441 µM
  TGI: 5.88 µM
HOP-62 NSCLC
  GI50: 0.154 µM
  TGI: 20.9 µM
PC-3 prostate
  GI50: 4.36 µM
  TGI: 38.5 µM
A549 NSCLC
  GI50: 0.216 µM
  TGI: 30.5 µM
HCT-116 colon
  GI50: 0.0177 µM
  TGI: 12.4 µM
OVCAR-8 ovarian
  GI50: 3.48 µM
  TGI: 42.6 µM
SW-620 colon
  GI50: 0.0383 µM
  TGI: 14.3 µM
SK-MEL-5 melanoma
  GI50: 0.388 µM
  TGI: 12.9 µM
CCRF-CEM leukemia
  GI50: 2.4 µM
  TGI: 24.5 µM
KM12 colon
  GI50: 0.0814 µM
  TGI: 30.1 µM
UO-31 renal
  GI50: 0.903 µM
  TGI: 5.43 µM
HS 578T breast
  GI50: 0.871 µM
  TGI: 15.8 µM
MDA-MB-435
  GI50: 0.0638 µM
  TGI: 16.4 µM
BT-549 breast
  GI50: 5.02 µM
  TGI: 17.2 µM
ACHN renal
  GI50: 1.64 µM
  TGI: 28 µM
SR leukemia
  GI50: 1.14 µM
  TGI: 16.5 µM
SF-268 CNS
  GI50: 1.86 µM
  TGI: 23.2 µM
SK-MEL-28 melanoma
  GI50: 0.0203 µM
  TGI: 13.5 µM
DU-145 prostate
  GI50: 2.34 µM
  TGI: 82.8 µM
A498 renal
  GI50: 0.0508 µM
  TGI: 0.462 µM
OVCAR-4 ovarian
  GI50: 0.506 µM
  TGI: 53.5 µM
CAKI-1 renal
  GI50: 0.237 µM
  TGI: 5.34 µM
SF-539 CNS
  GI50: 2.93 µM
  TGI: 17.4 µM
COLO 205 colon
  GI50: < 0.01 µM
  TGI: 14.2 µM
SNB-19 CNS
  GI50: 13.9 µM
  TGI: > 57.8 µM
SF-295 CNS
  GI50: 2.8 µM
  TGI: 17.3 µM
HCC-2998 colon
  GI50: 0.018 µM
  TGI: 11.6 µM
M14 melanoma
  GI50: 0.0193 µM
  TGI: 2.38 µM
SK-MEL-2 melanoma
  GI50: 0.0186 µM
  TGI: 0.531 µM
MALME-3M melanoma
  GI50: < 0.01 µM
  TGI: 0.0157 µM
NCI-H460 lung
  GI50: 1.05 µM
  TGI: 17.9 µM
EKVX NSCLC
  GI50: 0.427 µM
  TGI: 20.2 µM
MOLT-4 leukemia
  GI50: 1.59 µM
  TGI: 9.79 µM
SN12C renal
  GI50: 2.27 µM
  TGI: > 52.1 µM
OVCAR-3 ovarian
  GI50: 1.94 µM
  TGI: 22.2 µM
